Earlier results, collected in patent US4716040A, “Controlled absorption methyldopa pharmaceutical formulation” (Elan Corporation P.L.C., priority 1983, dated 1987).

Tests used:
[1] = system: decarboxylation of dopa to dopamine

oedema (hypertension; methyldopa therapy): sometimes observed | unchanged methyldopa in urine (of the methyldopa eliminated in the urine): about 25% | fraction of oral dose absorbed (oral): about one half | metabolites in urine (remainder of the methyldopa eliminated in the urine): mainly a mono-O-sulphate of methyldopa
Compound: C[C@](N)(Cc1ccc(O)c(O)c1)C(=O)O [methyldopa, 3-hydroxy-α-methyl-L-tyrosine]
effect on standing and supine blood pressure (hypertension; moderate to severe hypertension): reducing the standing blood pressure and also reduces the supine blood pressure | maximum hypotensive effect may not occur until (hypertension; oral): second day of treatment | onset of effects after oral administration (hypertension; oral): about 2 hours | some effect still usually apparent after a dose (hypertension; oral): 24 h | decarboxylation of dopa to dopamine [1]: inhibits
